Like-named read-outs stand apart in the source and are kept apart here.
Key:
PDE10 = PDE10 (Homo sapiens, UniProt Q9Y233); test: PDE10 assay with fluorescent substrate (IMAP, fluorescence polarization); type: biochemical
Description: (§1) c) Phosphodiesterase (PDE) 2A and 10 Assay with Fluorescent Substrate
(§2) The PDE reaction cleaves cAMP to AMP. The IMAP system (Molecular Device) using fluorescence polarization (FP) as detection principle was used to measure enzyme activity. A fluorescent labeled cAMP was used as substrate for the reaction, generating a labeled AMP. The fluorescent AMP binds specifically to the large M(III)-based nano-particles which reduces the rotational speed of the substrate and thus increases its polarization.
(§3) The inhibition of PDE 2A or 10 enzyme activity was assessed using IMAP-Phosphodiesterase-cAMP fluorescence labeled substrate (Molecular Devices, Order No. R7506), IMAP TR-FRET screening express (Molecular Devices, Order No. R8160, the TR-FRET component will not be used) and PDE 2A or PDE10 protein expressed upon baculovirus infection in SF9 cells. The cells were incubated after infection for ˜3 days and protein production was confirmed by Western Blot. The cells were collected by centrifugation and the pellet frozen in liquid nitrogen before it was resuspended in PBS containing 1% Triton X-100 and protease inhibitors.
(§4) All reactions were performed in 384 well plates, Perkin Elmer black optiplates and IMAP reaction buffer with 0.1% Tween20 (kit component)
(§5) Compounds were serial diluted in DMSO. With an intermediate dilution step with reaction buffer DMSO concentration was reduced to achieve 1% DMSO in the assay reaction. Setup of the assay started with 10 μl enzyme (˜10 ng/well, depending on prep. batch), 5 μl compound, reaction was started by addition of 5 μl labeled cAMP (30 nM, final concentration), immediately mixed for 15 seconds on a Eppendorf mixmate (2000 rpm) followed by an incubation at room temperature for 90 minutes in the dark. Reaction is stopped by adding of 60 μl binding buffer for FP/cAMP (kit component).
(§6) Each assay plate contained wells with vehicle controls (1% DMSO) for the measurement of non-inhibited reaction (=100% control) and wells without enzyme as 0% controls.

PDE 10A = PDE 10A (Homo sapiens, UniProt Q9Y233); test: Radioactive PDE10 assay ([3H]cAMP SPA); type: biochemical
Description: (§7) The activity of the positive control (minus the negative control=background) is set to 100% and activity in the presence of compound is expressed relative to these 100%.
(§8) IC50 are calculated with GraphPadPrism or other suited software setting the positive control as 100 and the negative control as 0. For calculation of IC50 usually 11 dilutions of the test compound are selected.
protein concentration: 75 pg/μl
In detail the protocol is as follows:
(§9) Into a 384 well plate (OptiPlate, white), the following components are pipetted (either manually or using automated pipetting devices):
(§10) 20 μl test-compound solution (test compound diluted in assay buffer at twofold the desired concentration)
+10 μl PDE 10A preparation (enzyme diluted in assay buffer to a concentration of 0.3 ng/μl protein)
+10 μl cAMP tracer (diluted in assay buffer to a concentration of 80 nM cAMP, specific activity ˜4 mCi/l)
After addition of all 3 components the plates are shortly spun and incubated at room temperature for 60 min. The reaction is stopped by the addition of 20 μl Yttrium SPA PDE Beads containing 18 mM zinc sulphate in water
PDE 10A protein is expressed upon baculovirus infection in SF9 cells. The cells have been incubated upon infection for ˜3 days and protein production was confirmed by Western Blot. The cells were collected by centrifugation and the pellet frozen in liquid nitrogen before it was resuspended in PBS containing 1% Triton X-100 and protease inhibitors.

[1] = Metabolic stability in pooled liver microsomes; type: in vitro ADME; settings: human liver microsomes, 37° C., 1 mg/mL microsomal protein, test compound 1 μM, NADPH
Description: The metabolic stability of the compounds according to the invention has been investigated as follows:
The metabolic degradation of the test compound was assayed at 37° C. with pooled liver microsomes from various species. The final incubation volume of 100 μl per time point contains TRIS buffer pH 7.6 at room temperature (0.1 M), magnesium chloride (5 mM), microsomal protein (1 mg/mL for human and dog, 0.5 mg/mL for other species) and the test compound at a final concentration of 1 μM. Following a short preincubation period at 37° C., the reactions were initiated by addition of betanicotinamide adenine dinucleotide phosphate, reduced form (NADPH, 1 mM), and terminated by transferring an aliquot into solvent after different time points. […] The half-life was determined by the slope of the semi-logarithmic plot of the concentration-time profile.

hERG channel = hERG channel (Homo sapiens, UniProt Q12809); test: hERG channel assay (whole-cell patch clamp, HEK293 cells transfected with hERG cDNA); type: cell-based; settings: 35° C.
Chain of hERG channel (Q12809 whole entry): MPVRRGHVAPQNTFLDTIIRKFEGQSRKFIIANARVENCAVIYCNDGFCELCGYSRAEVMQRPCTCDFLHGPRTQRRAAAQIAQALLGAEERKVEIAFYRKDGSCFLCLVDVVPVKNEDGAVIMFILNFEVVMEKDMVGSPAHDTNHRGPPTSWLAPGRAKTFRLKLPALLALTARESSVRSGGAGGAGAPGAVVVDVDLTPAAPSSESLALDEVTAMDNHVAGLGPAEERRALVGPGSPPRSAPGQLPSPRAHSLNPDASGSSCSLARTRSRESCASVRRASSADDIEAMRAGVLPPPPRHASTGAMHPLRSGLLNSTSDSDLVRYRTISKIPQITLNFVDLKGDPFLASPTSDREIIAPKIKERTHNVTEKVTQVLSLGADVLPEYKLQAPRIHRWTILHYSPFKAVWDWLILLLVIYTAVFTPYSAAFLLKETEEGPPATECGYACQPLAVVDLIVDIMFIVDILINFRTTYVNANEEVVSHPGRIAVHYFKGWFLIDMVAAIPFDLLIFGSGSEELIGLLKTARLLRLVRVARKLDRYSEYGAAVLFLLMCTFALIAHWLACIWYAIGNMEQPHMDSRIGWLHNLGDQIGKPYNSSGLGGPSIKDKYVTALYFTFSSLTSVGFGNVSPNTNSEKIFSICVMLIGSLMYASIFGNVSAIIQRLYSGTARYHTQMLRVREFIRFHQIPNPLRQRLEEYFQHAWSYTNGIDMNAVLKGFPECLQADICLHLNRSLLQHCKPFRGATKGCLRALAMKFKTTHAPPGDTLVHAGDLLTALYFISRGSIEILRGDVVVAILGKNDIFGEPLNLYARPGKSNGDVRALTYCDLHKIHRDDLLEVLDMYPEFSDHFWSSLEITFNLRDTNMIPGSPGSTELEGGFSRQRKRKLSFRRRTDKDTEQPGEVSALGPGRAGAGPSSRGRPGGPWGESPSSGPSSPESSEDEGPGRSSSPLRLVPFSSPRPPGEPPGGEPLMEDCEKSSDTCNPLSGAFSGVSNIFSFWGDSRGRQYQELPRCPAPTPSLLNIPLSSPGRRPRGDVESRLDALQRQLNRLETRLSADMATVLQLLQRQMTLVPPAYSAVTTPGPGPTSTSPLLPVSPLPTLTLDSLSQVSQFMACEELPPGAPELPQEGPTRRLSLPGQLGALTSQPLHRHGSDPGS
Excerpt: hERG (Human Ether-à-Go-Go-Related Gene)-Channel Assay
hERG channel inhibition of compounds of the present invention has been investigated as follows:
HEK (human embryonic kidney) 293 cells were stably transfected with hERG cDNA. Cells were superfused with a bath solution containing (mM): NaCl (137), KCl (4.0), MgCl2 (1.0), CaCl2 (1.8), Glucose (10), HEPES (10), pH 7.4 with NaOH. Patch pipettes were made from borosilicate glass tubing using a horizontal puller and filled with pipette solution containing (mM): K-aspartate (130), MgCl2 (5.0), EGTA (5.0), K2ATP (4.0), HEPES (10.0), pH 7.2 with KOH. Resistance of the microelectrodes was in the range between 2 and 5 MΩ.
Stimulation and Recording:
Membrane currents were recorded using an EPC-10 patch clamp amplifier and PatchMaster software. hERG-mediated membrane currents were recorded at 35° C., using the whole-cell configuration of the patch-clamp technique. Transfected HEK293 cells were clamped at a holding potential of −60 mV and hERG-mediated inactivating tail currents were elicited using a pulse pattern with fixed amplitudes (activation/inactivation: 40 mV for 2000 ms; recovery: […]; ramp to 40 mV in 2 ms; inactivating tail current: 40 mV for 50 ms) repeated at 15 s intervals. During each inter-pulse interval 4 pulses scaled down by a factor of 0.2 were recorded for a P/n leak subtraction procedure. […] compensation was employed up to a level that safely allowed recording devoid of ringing.
Compound Preparation and Application:
The different concentrations of the test compound were applied sequentially on each of the different cells investigated. A steady state level of baseline current was measured for at least 6 sweeps prior to the application of the first test compound concentration.
The test compound was dissolved in DMSO to yield a master stock solution which was diluted further in DMSO to stock solutions needed for the lower concentrations. Final dilutions in extracellular buffer were prepared freshly from these stocks by a 1:1000 dilution step each before starting the experiments.
Data analysis and IC50 determination:
Peak current amplitudes were measured 3 ms after the ramp to +40 mV. For baseline and each concentration the peak currents of the three last sweeps before application of the next concentration were averaged. Residual currents ( 1/10) were calculated for each cell as the fraction of actual average peak current and average baseline peak current.
The logistic concentration-response curve of the following form was fitted to the residual current data using a genetic algorithm:
C: actual concentration of compound (in μM) IC50: half-inhibitory concentration (in μM) p: Hill slope

[2] = Animal experiments and sample analysis: plasma, brain and CSF concentration; type: in vivo; settings: rat; for concentration at 0.5 h: 0.5 h between administration and CSF sampling; for concentration at 0.5 h / concentration at 2 h: doses of 10.0 or 5 μmol/kg; for concentration at 2 h / Kp at 2 h: 2 h between administration and CSF sampling
Description: Test compounds were administered to animals (rat) different routes at doses of 10.0 or 5 μmol/kg, (both oral and intravenous). After compound administration, the animals were sacrificed in a CO2 chamber and CSF samples were carefully collected by puncture of the cisterna magna. Immediately after CSF sampling, blood was taken by heart puncture and brains were dissected out. Blood was collected in EDTA-coated microvettes and plasma was prepared by centrifugation. Concentration of the test compounds in plasma, CSF or brain homogenate was determined using HPLC-MS-MS.

PDE2A [3] = target: T1, PDE2A (Homo sapiens, UniProt O00408); test: PDE 2A assay with fluorescent substrate (IMAP, fluorescence polarization); type: biochemical; settings: read-out: PDE2 IC50
T1 sequence (O00408 whole entry, species assumed): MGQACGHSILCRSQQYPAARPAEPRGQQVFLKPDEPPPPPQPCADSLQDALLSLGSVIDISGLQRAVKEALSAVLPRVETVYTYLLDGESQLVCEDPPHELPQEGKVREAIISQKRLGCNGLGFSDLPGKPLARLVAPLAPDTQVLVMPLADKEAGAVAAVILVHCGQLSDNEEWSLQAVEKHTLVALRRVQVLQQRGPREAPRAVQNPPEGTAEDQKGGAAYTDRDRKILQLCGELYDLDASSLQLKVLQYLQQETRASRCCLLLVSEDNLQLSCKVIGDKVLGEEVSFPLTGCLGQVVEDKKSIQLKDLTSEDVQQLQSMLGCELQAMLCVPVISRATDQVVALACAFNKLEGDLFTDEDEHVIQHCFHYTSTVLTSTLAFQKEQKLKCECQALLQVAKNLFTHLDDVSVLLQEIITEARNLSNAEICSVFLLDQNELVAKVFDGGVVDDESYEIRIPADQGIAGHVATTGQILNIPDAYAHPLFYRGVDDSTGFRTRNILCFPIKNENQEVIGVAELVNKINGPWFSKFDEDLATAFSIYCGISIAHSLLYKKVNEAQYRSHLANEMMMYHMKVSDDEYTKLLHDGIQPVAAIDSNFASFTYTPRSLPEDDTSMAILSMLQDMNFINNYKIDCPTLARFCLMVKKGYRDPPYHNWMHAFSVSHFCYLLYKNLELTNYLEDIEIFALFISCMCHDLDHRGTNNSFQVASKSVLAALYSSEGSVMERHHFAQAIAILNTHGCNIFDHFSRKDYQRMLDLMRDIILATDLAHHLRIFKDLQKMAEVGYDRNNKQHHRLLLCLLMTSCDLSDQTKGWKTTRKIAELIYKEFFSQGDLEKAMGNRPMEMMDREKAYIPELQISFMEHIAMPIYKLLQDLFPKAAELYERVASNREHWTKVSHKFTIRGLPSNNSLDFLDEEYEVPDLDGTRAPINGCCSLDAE
Description: as §1, §2, §3, §4, §5, §6

PDE2A [4] = target: T1, PDE2A; test: Radioactive PDE2 assay ([3H]cAMP SPA); type: biochemical
Description: a) Radioactive PDE2 Assay Protocol:
PDE 2A protein is expressed upon baculovirus infection in SF9 cells. The cells have been incubated upon infection for ˜3 days and protein production was confirmed by Western Blot. The cells were collected by centrifugation and the pellet frozen in liquid nitrogen before it was resuspended in PBS containing 1% Triton X-100 and protease inhibitors.
as §9, §10
+10 μl PDE 2A preparation (enzyme diluted in assay buffer to a concentration of 0.5 ng/μl protein)
+10 μl [^3H]cAMP (diluted in assay buffer to a concentration of 80 nM cAMP)
positive control: no inhibitor, DMSO at the concentration as used in the compound dilutions
negative control: no PDE 2 (SF9 lysate instead of SF9/PDE 2A lysate)
Calculation of % Inhibition:
as §7, §8

[5] = brain, read-out: c(brain)/c(plasma)

Chain of PDE 10A (Q9Y233 whole entry, species assumed): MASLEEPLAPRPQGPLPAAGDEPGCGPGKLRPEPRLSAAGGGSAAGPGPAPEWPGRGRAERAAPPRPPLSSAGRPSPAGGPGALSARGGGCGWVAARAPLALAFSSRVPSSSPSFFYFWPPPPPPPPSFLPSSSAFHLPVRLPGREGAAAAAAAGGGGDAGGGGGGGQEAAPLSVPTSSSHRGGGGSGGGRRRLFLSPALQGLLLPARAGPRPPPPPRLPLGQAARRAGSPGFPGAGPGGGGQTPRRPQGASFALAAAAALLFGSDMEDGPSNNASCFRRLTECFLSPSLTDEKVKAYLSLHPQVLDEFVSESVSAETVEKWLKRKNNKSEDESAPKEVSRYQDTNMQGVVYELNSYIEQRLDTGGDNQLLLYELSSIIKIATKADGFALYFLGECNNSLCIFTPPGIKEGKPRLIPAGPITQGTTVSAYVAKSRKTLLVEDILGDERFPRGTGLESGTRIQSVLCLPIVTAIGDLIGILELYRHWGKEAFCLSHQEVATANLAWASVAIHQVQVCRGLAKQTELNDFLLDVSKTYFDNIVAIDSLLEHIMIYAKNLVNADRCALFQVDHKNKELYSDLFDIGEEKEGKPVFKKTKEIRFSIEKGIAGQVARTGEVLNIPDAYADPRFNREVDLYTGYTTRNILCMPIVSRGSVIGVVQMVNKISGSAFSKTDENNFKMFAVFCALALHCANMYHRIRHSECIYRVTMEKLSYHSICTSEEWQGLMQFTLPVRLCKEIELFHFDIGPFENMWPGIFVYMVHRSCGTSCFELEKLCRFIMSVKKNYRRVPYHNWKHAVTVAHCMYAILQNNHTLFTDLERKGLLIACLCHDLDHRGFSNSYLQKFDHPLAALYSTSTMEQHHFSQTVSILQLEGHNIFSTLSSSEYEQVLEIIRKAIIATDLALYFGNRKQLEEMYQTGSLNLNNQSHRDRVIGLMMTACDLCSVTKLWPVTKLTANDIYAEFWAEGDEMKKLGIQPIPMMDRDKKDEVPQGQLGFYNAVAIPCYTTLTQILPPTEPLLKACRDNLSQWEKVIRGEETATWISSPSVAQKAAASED
Chain of PDE10 (Q9Y233 whole entry, species assumed): as above

Row | Compound | IC50 (PDE10) [nM] | IC50 (PDE 10A) [nM] | Half-life - t½ [1] [h] | IC50 (PDE2A [3]) [nM] | IC50 (PDE2A [4]) [nM] | IC50 (hERG channel) [nM] | further results
1 | Cc1nc2cccnc2n2c(-c3cc(OC[C@H](C)O)ccc3Cl)nnc12 [Example 18] | – | – | 2.17 | – | – | > 10000 | concentration at 0.5 h ([2]; brain, read-out: conc brain): 351 nM; concentration at 0.5 h ([2]; plasma, read-out: conc plasma): 1220 nM; concentration at 0.5 h ([2]; read-out: conc CSF): 163 nM
2 | Cc1nc2cccnc2n2c(-c3cc(OC4CCOCC4)ccc3Cl)nnc12 [Example 20] | – | 2760 | 2.17 | – | – | > 10000 | concentration at 0.5 h ([2]; brain, read-out: conc brain): 272 nM; concentration at 0.5 h ([2]; plasma, read-out: conc plasma): 338 nM; concentration at 0.5 h ([2]; read-out: conc CSF): 37 nM
3 | COCCOc1ccc(Cl)c(-c2nnc3c(C)nc4ccc(C)nc4n23)c1 [Example 29] | 5100 | 2380 | – | 37 | 17 | – | –
4 | Cc1nc2cccnc2n2c(-c3cc(OCCC(C)O)ccc3Cl)nnc12 (centres unmarked) [Example 19] | – | 3010 | – | – | 146 | – | –
5 | Cc1ccc2nc(C)c3nnc(-c4cc(OCCCOC(F)(F)F)ccc4Cl)n3c2n1 [Example 33] | – | – | – | 5 | 4 | – | –
6 | Cc1nc2cccnc2n2c(-c3cc(OC(C)C4CCOCC4)ccc3Cl)nnc12 (centres unmarked) [Example 38] | – | 1960 | – | – | 417 | – | –
7 | Cc1ccc2nc(C)c3nnc(-c4cccc(O)c4)n3c2n1 [Example 3] | – | 411 | – | – | 155 | – | –
8 | Cc1nc2cccnc2n2c(-c3cc(O)ccc3F)nnc12 [Example 4] | 256 | 441 | – | 120 | 138 | – | –
9 | Cc1ccc2nc(C)c3nnc(-c4cc(OC[C@@H](C)O)ccc4Cl)n3c2n1 [Example 35] | – | – | 2.17 | 17 | 9 | – | –
10 | COCCCOc1ccc(Cl)c(-c2nnc3c(C)nc4ccc(C)nc4n23)c1 [Example 31] | 2900 | 1900 | – | 8 | 7 | – | –
11 | Cc1nc2cccnc2n2c(-c3cc(O[C@H]4CCOC4)ccc3Cl)nnc12 [Example 24] | – | – | – | – | 138 | – | –
12 | Cc1nc2cccnc2n2c(-c3cc(CC(C)(C)O)ccc3Cl)nnc12 [Example 82] | 5620 | – | 2.17 | 199 | – | > 10000 | –
13 | Cc1nc2cccnc2n2c(-c3cc(CCC(C)(C)O)ccc3Cl)nnc12 [Example 64] | 3870 | – | 2.17 | 45 | – | > 10000 | concentration at 2 h ([2]; brain, read-out: conc brain): 254 nM; Kp at 2 h [2, 5]: 0.5; concentration at 2 h ([2]; plasma, read-out: conc plasma): 783 nM; concentration at 2 h ([2]; read-out: conc CSF): 37 nM; Kp at 2 h ([2]; read-out: c(CSF)/c(plasma)): 0.06
14 | Cc1ccc2nc(C)c3nnc(-c4cc(OCCCO)ccc4Cl)n3c2n1 [Example 27] | 958 | 970 | – | – | – | > 10000 | –
15 | Cc1nc2cccnc2n2c(-c3cc(OC4CCC(O)C4)ccc3Cl)nnc12 (centres unmarked) [Example 40] | – | – | – | 77 | 80 | – | –

Second part, led by results:

Row | IC50 (PDE10) [nM] | IC50 (PDE 10A) [nM] | Half-life - t½ [1] [h] | IC50 (PDE2A [3]) [nM] | IC50 (PDE2A [4]) [nM] | Compound | IC50 (hERG channel) [nM] | further results
16 | 355 | 421 | 2.17 | – | – | Cc1nc2cccnc2n2c(-c3cc(O)ccc3Cl)nnc12 [Example 1] | – | –
17 | 2590 | – | 2.17 | 74 | – | Cc1nc2cccnc2n2c(-c3cc(C4(O)CCC4)ccc3Cl)nnc12 [Example 87] | > 10000 | –
18 | – | 3080 | – | – | 171 | Cc1nc2cccnc2n2c(-c3cc(OCC4(C)COC4)ccc3Cl)nnc12 [Example 37] | – | –
19 | 1120 | – | – | 112 | 40 | Cc1nc2cccnc2n2c(-c3cc(OCCO)ccc3Cl)nnc12 [Example 15] | – | –
20 | – | – | 2.17 | – | – | Cc1ccc(C(C)(C)O)cc1-c1nnc2c(C)nc3ccc(C4CC4)nc3n12 [Example 75] | > 10000 | concentration at 2 h ([2]; brain, read-out: conc brain): 383 nM; Kp at 2 h [2, 5]: 0.34; concentration at 2 h ([2]; plasma, read-out: conc plasma): 1130 nM; concentration at 2 h ([2]; read-out: conc CSF): 31 nM; Kp at 2 h ([2]; read-out: c(CSF)/c(plasma)): 0.03
21 | – | – | 2.17 | 17 | 9 | Cc1ccc2nc(C)c3nnc(-c4cc(OC[C@H](C)O)ccc4Cl)n3c2n1 [Example 34] | > 10000 | concentration at 0.5 h ([2]; brain, read-out: conc brain): 146 nM; concentration at 0.5 h ([2]; plasma, read-out: conc plasma): 223 nM; concentration at 0.5 h ([2]; read-out: conc CSF): 19 nM
22 | 1100 | – | 2.17 | 21 | – | Cc1nc2ccc(C3CC3)nc2n2c(-c3cc(C(C)(C)O)ccc3F)nnc12 [Example 76] | > 10000 | concentration at 2 h ([2]; brain, read-out: conc brain): 218 nM; Kp at 2 h [2, 5]: 0.5; concentration at 2 h ([2]; plasma, read-out: conc plasma): 463 nM; concentration at 2 h ([2]; read-out: conc CSF): 18 nM; Kp at 2 h ([2]; read-out: c(CSF)/c(plasma)): 0.04
23 | 6110 | – | 2.17 | 86 | – | Cc1nc2cccnc2n2c(-c3cc(C4(O)CCOCC4)ccc3Cl)nnc12 [Example 93] | > 10000 | –
24 | – | – | 2.17 | – | – | Cc1nc2ccc(C3CC3)nc2n2c(-c3cc(OCC(C)(C)O)ccc3Cl)nnc12 [Example 45] | > 10000 | concentration at 2 h ([2]; brain, read-out: conc brain): 183 nM; concentration at 2 h ([2]; plasma, read-out: conc plasma): 801 nM; concentration at 2 h ([2]; read-out: conc CSF): 25 nM
25 | 33 | 40 | – | 3 | 4 | Cc1ccc2nc(C)c3nnc(-c4cc(O)ccc4Cl)n3c2n1 [Example 2] | – | –
26 | 852 | – | 2.17 | 8 | – | Cc1nc2ccc(C3CC3)nc2n2c(-c3cc(OCC(C)(C)O)ccc3F)nnc12 [Example 47] | > 10000 | concentration at 2 h ([2]; brain, read-out: conc brain): 441 nM; Kp at 2 h [2, 5]: 0.7; concentration at 2 h ([2]; plasma, read-out: conc plasma): 622 nM; concentration at 2 h ([2]; read-out: conc CSF): 22 nM; Kp at 2 h ([2]; read-out: c(CSF)/c(plasma)): 0.04
27 | – | – | 2.17 | 8 | – | Cc1ccc(OCC(C)(C)O)cc1-c1nnc2c(C)nc3ccc(C4CC4)nc3n12 [Example 48] | > 10000 | –
28 | – | – | – | 207 | 115 | Cc1nc2cccnc2n2c(-c3cc(OC4CCOC4)ccc3Cl)nnc12 (centres unmarked) [Example 22] | – | –
29 | 3760 | – | 2.17 | 33 | – | Cc1nc2cccnc2n2c(-c3cc(OCC4(O)CCC4)ccc3Cl)nnc12 [Example 49] | > 10000 | concentration at 2 h ([2]; brain, read-out: conc brain): 47 nM; Kp at 2 h [2, 5]: 0.2; concentration at 2 h ([2]; plasma, read-out: conc plasma): 239 nM; concentration at 2 h ([2]; read-out: conc CSF): 13 nM; Kp at 2 h ([2]; read-out: c(CSF)/c(plasma)): 0.06
30 | – | 2100 | – | – | 914 | Cc1nc2cccnc2n2c(-c3cc(OC4CCC(O)CC4)ccc3Cl)nnc12 (centres unmarked) [Example 39] | – | –
31 | – | – | – | 216 | 71 | Cc1nc2cccnc2n2c(-c3cc(O[C@@H]4CCOC4)ccc3Cl)nnc12 [Example 23] | – | –
32 | 7330 | 3260 | – | 38 | 55 | Cc1nc2cccnc2n2c(-c3cc(OCC4CCOC4)ccc3Cl)nnc12 (centres unmarked) [Example 25] | – | –
33 | 4320 | – | 2.17 | 6 | – | Cc1nc2ccc(C3CC3)nc2n2c(-c3cc(C(C)(C)O)ccc3Cl)nnc12 [Example 85] | > 10000 | –
34 | – | 850 | – | – | 219 | Cc1ccc2nc(C)c3nnc(-c4cccc(OCCCO)c4)n3c2n1 [Example 36] | – | –
35 | – | 1380 | – | – | 116 | Cc1nc2cccnc2n2c(-c3cc(OCCCO)ccc3F)nnc12 [Example 26] | – | –
